Values after ≈ are worked out from the molar mass of the structure shown.
Key:
Type in all cases: functional, cell-based
[1] = Cytotoxicity against vincristine-resistant human KB/VJ300 cells
[2] = Cytotoxicity against vincristine-resistant human KB/VJ300 cells in presence of 0.1 ug/mL vincristine
Jurkat = assay: Cytotoxicity against human Jurkat cells
KB = assay: Cytotoxicity against vincristine-sensitive human KB cells

Row | Structure (SMILES) | IC50 [1] [µg/mL] | IC50 [2] [µM] | IC50 (Jurkat) [µg/mL] | IC50 (KB) [µg/mL]
1 | C=C1C2=Nc3ccccc3[C@@]23CCN2C/C(=C/C)[C@@H]1C[C@H]23 [VALPARICINE] | 0.75 (≈ 2.71 µM) | 1.67 | 0.25 (≈ 0.905 µM) | 3.6 (≈ 13 µM)
2 | C/C=C1\[C@@H](C(C)=O)CCN2CCc3c([nH]c4ccccc34)[C@H]12 [ARBORICININE] | > 25 | 31.3 | > 25 | > 25
3 | COC(=O)C1=C2Nc3ccccc3[C@]23CCN2CC[C@H]1[C@H]([C@H](C)OC)[C@@H]23 | > 25 | 26.8 | > 25 | > 25
4 | COC(=O)C1=C2Nc3ccccc3[C@]23CCN2CC[C@H]1[C@H]([C@@H](C)OC)[C@@H]23 | > 25 | 27.1 | > 25 | > 25
5 | CC[C@]12CCCNC13/C(=C\C(=O)OC)c1ccccc1N3C(=O)CC2 (some centres not stated) [ARBOLOSCINE] | 11 (≈ 32.3 µM) | 11.2 | – | 15 (≈ 44.1 µM)
6 | C/C=C1/CN2CCc3c([nH]c4ccccc34)[C@H]2C[C@@H]1C(C)=O [ARBORICINE] | > 25 | 36.7 | > 25 | > 25
7 | CC[C@]12CCCN3CC[C@]4(C(=C(C(=O)OC)C1)Nc1ccccc14)[C@@H]32 [VINCADIFFORMINE] | 6.3 (≈ 18.6 µM) | 13.3 | 21.8 (≈ 64.4 µM) | 10.2 (≈ 30.1 µM)

— ChEMBL document CHEMBL1141260, “Biologically active indole alkaloids from Kopsia arborea” (J Nat Prod, 2007)
